# Measurements from patent publication US10207988B2, “Methods and compositions for treatment of cancer and autoimmune disease” (THE JACKSON LABORATORY, priority 2011, dated 2019).
# Columns and labels:
# [1] = tested on: AID-expressing (AID+) primary human CLL cells; experiment: survival of primary human CLL cells cultured with DIDS (manual cytometry); type: cell-based
# Description: AID-expressing (AID+) or AID-negative (AID−) primary human CLL cells were cultured as described in Example 4. […] […] The cell survival was scored by manual cytometry for viable cells after 2, 4, or 8 days of exposure.
# (§1) Eight AID+ and eight AID− CLL samples were cultured in basic RPMI-1640 medium plus 30 micromolar DIDS, and survival was scored by manual cytometry for viable cells after 2, 4, 6, or 8 days. […] A total of 117 lymphoma or leukemia patients were studies, of which 106 were CLL patients. In 47% AID expression was determined by RT-PCR.
# [2] = tested on: RAD51 foci in primary mouse B-cells; experiment: RAD51 focus formation after ionizing radiation (immunofluorescence); type: cell-based
# Description: Primary mouse B-cells were isolated from spleen of wild type C57BL/6J mice by magnetic bead based sorting (Miltenyi) to purify B220+ IgM+ B-cells. B-cells were then […], exposed to 0 or 2.5 Gy ionizing radiation in a Cs137 irradiator, and then stained by immunofluorescence for foci of the homologous recombination factor RAD51. The fraction of cells in each culture showing formation of RAD51 foci within the nucleus is reported. Irradiated cells not cultured with DIDS (0 μM) show efficient focus formation. […] Error bars show the standard error of the mean (S.E.M) from three independent experiments.
# [3] = tested on: AID-negative (AID−) primary human CLL cells; experiment: survival of primary human CLL cells cultured with DIDS (manual cytometry); type: cell-based; conditions: 30 micromolar DIDS, 2, 4 or 8 days, versus untreated
# Description: AID-expressing (AID+) or AID-negative (AID−) primary human CLL cells were cultured as described in Example 4. Cells were cultured in basic RPMI-1640 medium without supplementation (untreated; triangle in FIG. 17) or with 30 micromolar DIDS. Open circles represent the data for AID-negative cells treated with 30 micromolar DIDS and filled boxes represent the data for AID-positive cells treated with 30 micromolar DIDS. The cell survival was scored by manual cytometry for viable cells after 2, 4, or 8 days of exposure.
# as §1
# Rad51 = molecular target: T1, Rad51 (Homo sapiens, UniProt Q06609); conditions: cited from earlier work
# T1 sequence (Q06609 1-339): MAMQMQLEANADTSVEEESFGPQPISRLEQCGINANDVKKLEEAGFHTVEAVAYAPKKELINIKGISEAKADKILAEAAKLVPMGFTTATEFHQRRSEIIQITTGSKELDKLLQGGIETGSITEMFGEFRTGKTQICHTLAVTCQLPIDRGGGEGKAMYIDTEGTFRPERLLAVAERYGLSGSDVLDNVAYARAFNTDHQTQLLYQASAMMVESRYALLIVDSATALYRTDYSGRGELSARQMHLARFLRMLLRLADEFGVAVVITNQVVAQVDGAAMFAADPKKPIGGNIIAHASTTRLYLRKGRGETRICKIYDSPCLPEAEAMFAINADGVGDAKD
# [4] = tested on: phospho-H2AX foci in mouse primary splenocytes (AID+/+ and AID−/−); experiment: phospho-H2AX foci in activated splenocytes exposed to DIDS; type: cell-based; conditions: 150 micromolar DIDS
# Source text: Mouse primary splenocytes isolated from 8-12 week old wild type (AID+/+) and AID-knockout (AID−/−) mice as described in Example 1 were exposed to 150 micromolar DIDS, and activated by anti-CD40 antibody plus interleukin-4, fixed and stained for the DNA break marker phospho-H2AX and for nuclear DNA using the fluorescent DNA staining dye 4′,6-diamidino-2-phenylindole (DAPI). In FIG. 16A the fraction of cells containing 0, 1-2, or greater than 2 phospho-H2AX positive foci was quantified for AID+/+ (filled bars) and AID−/− (open bars) cells. […] In FIG. 16B the proportion of phospho-H2AX positive cells (filled bars) versus phospho-H2AX negative cells (open bars) was quantified for AID+/+ in comparison to AID−/− cultures. […] In FIG. 16C the number of foci per cell was quantified for DIDS-treated AID+/+ (filled bars) versus AID−/− (open bars) cells. Data are expressed as the absolute number of cells (y-axis) harboring the indicated number of phosphor-H2AX foci (from 0 to >20; x-axis).
# [5] = tested on: cells isolated from the spleens of wild type or AID knockout (−/−) mice; experiment: splenocyte viability, Guava EasyCyte Flow Cytometer Assay; type: cell-based, mouse; conditions: 150 μM DIDS, stimulated with anti-CD40 antibodies and IL-4
# Description: Cells isolated from the spleens of wild-type (WT) or AICDA knock-out (−/−) mice were stimulated with anti-CD40 antibodies and IL-4 on day 0 and day 2. DIDS was added on day 0 and day 2 at concentrations of 0 or 150 μM. WT cells stimulated with anti-CD40 antibodies plus IL-4 and treated with DIDS are shown as filled boxes, AICDA−/− cells stimulated with anti-CD40 antibodies plus IL-4 and treated with DIDS as circle; WT cells stimulated with anti-CD40 antibodies plus IL-4 are shown as open diamonds; and AICDA−/− cells stimulated with anti-CD40 plus IL-4 antibodies as open triangles. The total number of viable cells was determined every other day. Days are shown on the x-axis and the fraction of viable cells is shown on the y-axis.
# Cells were isolated from the spleens of wild type or AID knockout (−/−) mice, cultured and stimulated with anti-CD40 antibodies and IL-4 on day 0 and day 2. DIDS was added on day 0 and day 2 at concentrations of 0 or 150 μM. The total number of viable cells was determined every other day using Guava EasyCyte Flow Cytometer Assay.
smiles,measurement,setting,value
"O=S(=O)([O-])c1cc(N=C=S)ccc1/C=C/c1ccc(N=C=S)cc1S(=O)(=O)[O-].[Na+].[Na+] [DIDS, 4,4′diisothiocyanostilbene-2,2′-disulfonic acid]",cell viability,[1]; 10 μM DIDS,significant effects on cell viability
same,cell survival (viable cells),"[1]; 30 micromolar DIDS, 2, 4 or 8 days",reduced cell viability
same,"cell viability, AID-positive versus AID-negative","[1]; 30 micromolar DIDS, eight AID+ and eight AID− CLL samples, 2, 4, 6 or 8 days",more strongly reduces cell viability in AID-positive than in AID-negative primary human CLL cells
same,fraction of cells with RAD51 foci,"[2]; 150 μM DIDS, 2.5 Gy ionizing radiation",completely inhibits radiation-induced RAD51 focus formation
same,fraction of cells with RAD51 foci,"[2]; 150 µM DIDS, irradiated cells (legend of FIG. 22)",completely inhibits radiation-induced RAD51 focus formation
same,cell survival (viable cells),[3],indistinguishable
same,effect on Rad51 complexes and heteroduplex formation,Rad51,disrupts Rad51 complexes and inhibits heteroduplex formation
same,proportion of phospho-H2AX positive cells,[4]; AID+/+ in comparison to AID−/− cultures,higher percentage of phospho-H2AX positive cells
same,fraction of cells with greater than 2 phospho-H2AX foci,[4]; AID+/+ versus AID−/− cells,significant higher fraction of cells with greater than 2 foci
same,total number of viable cells,[5],lower viability
